Experimental findings from ChEMBL document CHEMBL3507680, “University of Dundee, Gates Library screen for HepG2 cell viability” are described below.

A short description of this data set: Human HepG2 cell viability assay in 384 well format. It is filed as toxicity, cell-based. Also on record: dose 125 nL, time 70.5 hour; concentration not given beside the values. To be noted: HepG2 cells, read-out: Inhibition.
`CC(NCc1cc(F)ccc1F)c1ccc(OCC(=O)NC2CC2)cc1` (stereo not drawn): the cytotoxicity at 70.5 h was -1.77%.

On to `CC(Cc1ccc(Cl)cc1)NC(=O)Nc1cnn(CC(N)=O)c1` (stereo not drawn), for which the cytotoxicity at 70.5 h was -8.4%. The value for `CC(NCc1cccc(Cl)c1)c1ccc(OCC(=O)NC2CC2)cc1` (stereo not drawn) was -4.37%; that for `CCN(Cc1nc2c(cnn2C)c(=O)[nH]1)c1cccc(C)c1` was 4.24%; that for `CCN(Cc1nc2c(cnn2C)c(=O)[nH]1)c1ccc(F)cc1` was -3.68%. For `Cc1ccccc1CC(C)NC(=O)Nc1cnn(CC(N)=O)c1` (stereo not drawn), the cytotoxicity at 70.5 h is -0.765%.

With `COc1ccc(COCC(O)CNC(=O)Cc2ccc(C)cc2)cc1` (stereo not drawn), the cytotoxicity at 70.5 h was -2.43%. `O=C(Cc1ccccc1F)N1CCN(Cc2noc(C3CC3)n2)CC1`: the cytotoxicity at 70.5 h worked out at 10.8%. `COc1ccc(COCC(O)CNC(=O)c2ccc(C)c(F)c2)cc1` (stereo not drawn): the cytotoxicity at 70.5 h was -1.89%. Next, `COc1ccc(COCC(O)CNC(=O)c2ccc(C#N)cc2)cc1` (stereo not drawn): -5.39%; `c1cnn(CC2CN(c3ncnc4[nH]ccc34)CCO2)c1` (stereo not drawn): -0.974%. Next, `COc1ccc(COCC(O)CNC(=O)c2ccncc2)cc1` (stereo not drawn): -1.56%; `c1nc(N2CCOC(Cn3cncn3)C2)c2cc[nH]c2n1` (stereo not drawn): -6.11%; `CCN1CCC(NC(=O)CN2CCCC2Cn2cc(C)cn2)CC1` (stereo not drawn): 0.649%. Next, `CCc1ocnc1C(=O)N1CCOC(c2nc(C)n[nH]2)C1` (stereo not drawn): -1.72%; `Cn1ccnc1CN1CCCN(C(=O)COC2CCCCC2)CC1`: 22.3%; `CC(C)n1ccnc1CN1CCCN(C(=O)CN(C)C2CC2)CC1`: -5.01%. On to `CCn1ccnc1CN1CCCN(C(=O)COC2CCCCC2)CC1`, for which the cytotoxicity at 70.5 h was -3.09%. Consider `Cc1ccoc1C(=O)NC1CCN(Cc2cccc3ccccc23)CC1`, for which the cytotoxicity at 70.5 h came out at 1.33%.

`COc1ccccc1C(=O)N1CCC(Nc2ccc(C)nn2)CC1`: the cytotoxicity at 70.5 h was -8.98%. In the case of `CCc1noc(CN(Cc2cccs2)CC2CCCO2)n1` (stereo not drawn), the cytotoxicity at 70.5 h is -1.65%.

`CC(=O)NCC1CCN(C(=O)NCCc2ccc(Cl)s2)CC1`: the cytotoxicity at 70.5 h was -6.89%. Next, `CC(=O)N1CCCN(C(=O)NCc2ccc(Cl)s2)CC1`: -3.07%. In the case of `CC(C)c1ccc(S(=O)(=O)N2CSCC2C(=O)NCC(F)(F)F)cc1` (stereo not drawn), the cytotoxicity at 70.5 h was -7.38%.

With `Cc1cn2nc(N3CCN(Cc4cc(C)on4)CC3)sc2n1`, the cytotoxicity at 70.5 h was -2.77%.

As to `CCn1ccnc1CN1CCOC(Cn2cccn2)C1` (stereo not drawn), the cytotoxicity at 70.5 h is 22.6%.

With `COc1ccc(C(=O)N2CCC(Nc3cccnn3)CC2)c(F)c1`, the cytotoxicity at 70.5 h is -3.14%. The value for `COc1ccc(C(=O)N2CCC(Nc3ccc(C)nn3)CC2)cc1` was 0.696%. Next, `c1cnnc(N2CCCC2CNc2cnc3ccccc3n2)c1` (stereo not drawn): -2.61%; `Cc1ccc(NS(=O)(=O)c2cc3c(c(C(=O)O)c2)OCCO3)cc1C`: -5.96%. Turning to `O=C(O)c1cc(S(=O)(=O)Nc2cc(Cl)ccc2F)cc2c1OCCO2`, the cytotoxicity at 70.5 h worked out at 23%. The value for `O=C(NCCc1ccc(I)s1)N1CCC1` was -2.1%; that for `CC(C)NC(=O)CS(=O)(=O)Cc1cc(Cl)c2c(c1)OCCO2` was -1.77%; that for `CCn1cc(NC(=O)NCC(C)O)cn1` (stereo not drawn) was -1.8%. Next, `CCc1nc(CN(CC(N)=O)C(C)C)cs1`: 18.1%; `CCn1cc(NC(=O)NCC(O)c2ccccc2)cn1` (stereo not drawn): 2.91%. As to `CCOc1ccnc(N2CCN(C(=O)c3cn[nH]c3CC)CC2)n1`, the cytotoxicity at 70.5 h is -3.19%. The value for `CCNc1cc2c(nn1)CCN(C(=O)CC1CCCCC1)C2` was -4.16%; that for `CCCOc1ccc(CNC2CCCc3c2cnn3CC)cc1OC` (stereo not drawn) was 29.4%. For the molecule `CS(=O)(=O)c1ccc(CNC(=O)N2CCC(c3ccccc3)CC2)cc1`, the cytotoxicity at 70.5 h was -2.27%. Next, `O=C(c1ccc(O)cc1)N1CCN(C(=O)c2ccc3c(c2)COC3)CC1`: 2.44%. The value for `CC(O)CN1CCN(C(=O)c2ccc3c(c2)COC3)CC1` (stereo not drawn) was 22.6%.

As to `COc1ccc(Cl)cc1C(=O)N1CCCC(n2nc(C)nc2C)C1` (stereo not drawn), the cytotoxicity at 70.5 h amounted to 27.7%. Next, `CC(C)c1n[nH]c(C2CN(Cc3nnc(C4CC4)o3)CCO2)n1` (stereo not drawn): 24.8%; `Cc1nn(C)c(C)c1C1CCCN1Cc1cccc(C(N)=O)c1` (stereo not drawn): 4%. The value for `COc1cccc(CN2CCCC2c2c(C)nn(C)c2C)c1` (stereo not drawn) was 3.04%; that for `c1ccc(-c2nc(CN3CCCC3Cn3cncn3)cs2)cc1` (stereo not drawn) was 14.3%; that for `CCS(=O)(=O)CCN1CCCC1c1noc(C2CC2)n1` (stereo not drawn) was 27%. Next, `CCc1nc(CN(C(C)=O)C2CCN(Cc3cnc(C)cn3)C2)no1` (stereo not drawn): 23.6%; `COc1cccc(OCC(=O)NS(=O)(=O)c2ccc(C)s2)c1`: 14%; `CC(NC(=O)NCCCc1n[nH]c(N)c1C#N)c1cccs1` (stereo not drawn): 44.5%. As for `CCOc1ncccc1NC(=O)NCC(O)c1ccccc1OC` (stereo not drawn), the cytotoxicity at 70.5 h turned out to be 11.2%.

On to `CC(NC(=O)NCCCc1n[nH]c(N)c1C#N)c1ccccc1` (stereo not drawn), for which the cytotoxicity at 70.5 h amounted to 26.6%. Consider `COc1cccc(-n2c(C)cc(C(=O)NS(C)(=O)=O)c2C)c1`, for which the cytotoxicity at 70.5 h was -1.93%. On to `COCCOc1ccc(NC(=O)C2CC(=O)N(C)C2)cn1` (stereo not drawn), for which the cytotoxicity at 70.5 h is -4.68%.

`COCCOc1ccc(NC(=O)C2CCCN(C(N)=O)C2)cn1` (stereo not drawn): the cytotoxicity at 70.5 h turned out to be 4.12%.

With `Cc1ccc(-c2nnc(CN3CCOC(Cn4cccn4)C3)o2)cc1` (stereo not drawn), the cytotoxicity at 70.5 h was -7.48%. The value for `Cc1cnc(NC(=O)c2ccc(-n3ncc(C#N)c3N)cc2)s1` was 8.89%; that for `COc1ccc(C2=CCN(C(=O)CN(C)CC(N)=O)CC2)cc1` was -2.43%; that for `Cc1cccc(C2(NC(=O)CCN3C(=O)CCC3=O)CCCC2)c1` was -6.61%. Consider `CCN1CCN(C2CCN(Cc3c(C)noc3C)CC2)C1=O`, for which the cytotoxicity at 70.5 h amounted to 25.5%. Regarding `COC(=O)N1CCCC(C(=O)NCc2cc3cccc(OC)c3o2)C1` (stereo not drawn), the cytotoxicity at 70.5 h was -6.62%. As to `CCCC(Nc1c(C#N)c(=O)n(C)c(=O)n1C)c1ccc(F)cc1F` (stereo not drawn), the cytotoxicity at 70.5 h amounted to 9.48%. In the case of `CC(=O)c1cccc(OCC(=O)NS(=O)(=O)c2ccc(C)s2)c1`, the cytotoxicity at 70.5 h worked out at 28.6%.

In the case of `CCOC(=O)C1CCN(Cc2csc(C(C)(C)C)n2)CC1`, the cytotoxicity at 70.5 h was -2.2%.

With `COc1cccc2cc(CNC(C)(C)C(=O)N3CCC(O)CC3)oc12`, the cytotoxicity at 70.5 h turned out to be 14.1%. The value for `CCc1n[nH]c(C2CN(C(=O)c3cnns3)CCO2)n1` (stereo not drawn) was 2.09%; that for `c1ccc(-c2nnc(CNCCn3cccn3)o2)cc1` was -1.94%; that for `Cc1nc(C)n(CC2CCCN2CCCOc2ccc(F)cc2)n1` (stereo not drawn) was 6.79%. For the molecule `CNS(=O)(=O)CCCN1CCCC1c1cc(C)on1` (stereo not drawn), the cytotoxicity at 70.5 h turned out to be 1.72%. Take `O=C(CCc1cccnc1)N1CCCC(n2cncn2)C1` (stereo not drawn): the cytotoxicity at 70.5 h is -2.85%. Turning to `Cc1cnn(CC2CN(c3ncnc4ccccc34)CCO2)c1` (stereo not drawn), the cytotoxicity at 70.5 h is 31.7%.

Take `COCc1ccccc1C(=O)N1CCCC(n2nc(C)cc2C)C1` (stereo not drawn): the cytotoxicity at 70.5 h came to 24.9%.
